One test relates to E. faecalis. Briefly: MIC assay, E. faecalis. The format is cell-based, Enterococcus faecalis.
A further test has as its system S. aureus. Briefly: MIC assay, S. aureus. In kind it is cell-based, Staphylococcus aureus.
In another test the test system is E coli. Briefly: MIC assay, E coli. The format is cell-based.
A further test concerns H. flu. In kind it is cell-based, H. influenza.
The subject of the next test is S. pneumo. Briefly: MIC assay, S. pneumo. In kind it is cell-based, Streptococcus pneumoniae.

This is an account of results in patent publication US7271165B2, “Rifamycin analogs and uses thereof” (priority 2003, dated 2007).

The structures appear in SMILES notation. ≈ marks a conversion by molar mass, not a printed value. Where two headings read alike, the source gives them in different places.

Regarding `CO[C@H]1/C=C/O[C@@]2(C)Oc3c(C)c(O)c4c(=O)c(c5oc6cc(N7CCC(NS(=O)(=O)C(F)(F)F)CC7)cc(O)c6nc-5c4c3C2=O)NC(=O)/C(C)=C\C=C\[C@H](C)[C@H](O)[C@@H](C)[C@@H](O)[C@@H](C)[C@H](OC(C)=O)[C@@H]1C` [Compound 23], in the test on E. faecalis, the “MIC (μg/mL) E. faecalis” value was found to be 4 µg/mL (≈ 3.88 µM). The “MIC (μg/mL) S. aureus” value in the test on S. aureus came out at 0.015 µg/mL (≈ 0.0145 µM). In addition, the “MIC (μg/mL) E coli” value against E coli was over 8 µg/mL. The “MIC (μg/mL) H. flu” value with H. flu (H. flu) is 2 µg/mL (≈ 1.94 µM). Also, in the test on S. pneumo., the “MIC (μg/mL) S. pneumo.” value was 0.00012 µg/mL (≈ 0.000116 µM).
Taken in the same sequence, the figures for `CCCNC(=O)NC1CCN(c2cc(O)c3nc4c5c6c7c(C)c(O)c5c(=O)c(c-4oc3c2)NC(=O)/C(C)=C\C=C\[C@H](C)[C@H](O)[C@@H](C)[C@@H](O)[C@@H](C)[C@H](O)[C@H](C)[C@@H](OC)/C=C/O[C@@](C)(O7)C6=O)CC1` [Compound 26, 25-O-deacetyl-3′-hydroxy-5′-[4-propyluryl-1-piperidinyl]benzoxazinorifamycin] were 2 µg/mL (≈ 2.12 µM), 0.008 µg/mL (≈ 0.00849 µM), over 8 µg/mL, 1 µg/mL (≈ 1.06 µM) and 0.00012 µg/mL (≈ 0.000127 µM).
The corresponding values for `COC1C=COC2(C)Oc3c(C)c(O)c4c(=O)c(c5oc6cc(N7CCC(CNC(C)=O)CC7)cc(O)c6nc-5c4c3C2=O)NC(=O)C(C)=CC=CC(C)C(O)C(C)C(O)C(C)C(O)C1C` (stereo not drawn) [Compound 56, 25-O-deacetyl-3′-hydroxy-5′-[4-acetylaminomethyl-1-piperidinyl]benzoxazinorifamycin] are 0.12 µg/mL (≈ 0.131 µM), 0.004 µg/mL (≈ 0.00438 µM), 8 µg/mL (≈ 8.76 µM), 0.25 µg/mL (≈ 0.274 µM) and 0.001 µg/mL (≈ 0.0011 µM).
For the compound `CCOc1c(N2CCN(CC)CC2)ccc2nc3c4c5c6c(C)c(O)c4c(=O)c(c-3oc12)NC(=O)C(C)=CC=CC(C)C(O)C(C)C(O)C(C)C(O)C(C)C(OC)C=COC(C)(O6)C5=O` (stereo not drawn) [Compound 91], the “MIC (μg/mL) E. faecalis” value in the test on E. faecalis worked out at 0.5 µg/mL (≈ 0.556 µM). Also, the “MIC (μg/mL) S. aureus” value in the test with S. aureus turned out to be 0.008 µg/mL (≈ 0.0089 µM). Besides, the “MIC (μg/mL) E coli” value with E coli came to 8 µg/mL (≈ 8.9 µM). In addition, the “MIC (μg/mL) H. flu” value in the test on H. flu (H. flu) was determined as 0.25 µg/mL (≈ 0.278 µM). Moreover, the “MIC (μg/mL) S. pneumo.” value against S. pneumo. was found to be 0.0005 µg/mL (≈ 0.000556 µM).
The corresponding values for `COC1C=COC2(C)Oc3c(C)c(O)c4c(=O)c(c5oc6cc(N(C)CCC#N)ccc6nc-5c4c3C2=O)NC(=O)C(C)=CC=CC(C)C(O)C(C)C(O)C(C)C(O)C1C` (stereo not drawn) [Compound 127] are 0.5 µg/mL (≈ 0.606 µM), 0.06 µg/mL (≈ 0.0727 µM), 8 µg/mL (≈ 9.7 µM), 0.12 µg/mL (≈ 0.145 µM) and 0.008 µg/mL (≈ 0.0097 µM).
For the compound `CO[C@H]1/C=C/O[C@@]2(C)Oc3c(C)c(O)c4c(=O)c(c5oc6cccc(O)c6nc-5c4c3C2=O)NC(=O)/C(C)=C\C=C\[C@H](C)[C@H](O)[C@@H](C)[C@@H](O)[C@@H](C)[C@H](O)[C@@H]1C` [Compound 133], the “MIC (μg/mL) E. faecalis” value against E. faecalis amounted to 0.12 µg/mL (≈ 0.158 µM). In the test with S. aureus, the “MIC (μg/mL) S. aureus” value amounted to 0.004 µg/mL (≈ 0.00527 µM). Moreover, in the test on E coli, the “MIC (μg/mL) E coli” value was found to be 8 µg/mL (≈ 10.5 µM). Besides, in the test with H. flu, the “MIC (μg/mL) H. flu” value is 0.25 µg/mL (≈ 0.329 µM). Further, the “MIC (μg/mL) S. pneumo.” value against S. pneumo. is 0.002 µg/mL (≈ 0.00264 µM).
Take `CO[C@H]1/C=C/O[C@@]2(C)Oc3c(C)c(O)c4c(=O)c(c5oc6cc(N7CCC(NC(=O)OC(C)C)CC7)cc(O)c6nc-5c4c3C2=O)NC(=O)/C(C)=C\C=C\[C@H](C)[C@H](O)[C@@H](C)[C@@H](O)[C@@H](C)[C@H](OC(C)=O)[C@@H]1C` [Compound 22]: the “MIC (μg/mL) E. faecalis” value in the test with E. faecalis is 4 µg/mL (≈ 4.06 µM). Also, the “MIC (μg/mL) S. aureus” value against S. aureus was 0.015 µg/mL (≈ 0.0152 µM). Also, the “MIC (μg/mL) E coli” value against E coli is over 8 µg/mL. Further, the “MIC (μg/mL) H. flu” value in the test with H. flu (H. flu) worked out at 2 µg/mL (≈ 2.03 µM). Further, in the test with S. pneumo., the “MIC (μg/mL) S. pneumo.” value was found to be 0.00025 µg/mL (≈ 0.000254 µM).
The corresponding values for `CCCNC(=O)NC1CCN(c2cc(O)c3nc4c5c6c7c(C)c(O)c5c(=O)c(c-4oc3c2)NC(=O)/C(C)=C\C=C\[C@H](C)[C@H](O)[C@@H](C)[C@@H](O)[C@@H](C)[C@H](OC(C)=O)[C@H](C)[C@@H](OC)/C=C/O[C@@](C)(O7)C6=O)CC1` [Compound 28, 3′-hydroxy-5′-[4-propyluryl-1-piperidinyl]benzoxazinorifamycin] are 1 µg/mL (≈ 1.02 µM), 0.03 µg/mL (≈ 0.0305 µM), over 8 µg/mL, 0.25 µg/mL (≈ 0.254 µM) and 0.002 µg/mL (≈ 0.00203 µM).
Taken in the same sequence, the figures for `COC1C=COC2(C)Oc3c(C)c(O)c4c(=O)c(c5oc6cc(N7CCC(CCO)CC7)cc(O)c6nc-5c4c3C2=O)NC(=O)C(C)=CC=CC(C)C(O)C(C)C(O)C(C)C(OC(C)=O)C1C` (stereo not drawn) [Compound 61, 3′-hydroxy-5′-[4-(2-hydroxyethyl)-1-piperidinyl]benzoxazinorifamycin] were 1 µg/mL (≈ 1.08 µM), 0.004 µg/mL (≈ 0.00431 µM), over 8 µg/mL, 0.25 µg/mL (≈ 0.269 µM) and 0.00012 µg/mL (≈ 0.000129 µM).
